The conditions of data set [1]: Crystal.
Data set [2] in a line: Molar enthalpy of transition or fusion. To be noted: Crystal; DSC.

These results are taken from the NIST ThermoML archive (doi:10.1016/j.tca.2018.04.002).

± gives the expanded uncertainty stated by the source.

For the compound `CCCCCCCCCCCC(=O)O` [dodecanoic acid], in data set [1] (296.15 K, 101.33 kPa, Hot disk method), the thermal conductivity turned out to be 0.394 ± 0.081 W/m/K. Besides, in data set [1] (DSC), the Triple point temperature is listed as 320.35 ± 4.1 K. For the same compound, in data set [2], the “Molar enthalpy of transition or fusion” value worked out at 10.4 ± 2.08 kcal/mol.
